# Source: a melting point compilation (Tetko et al.; mined from patent text by program, amines drawn as free bases though some values may be those of a salt)
row,melting point [°C],Structure (SMILES)
1,87.1,COCCOC1c2ccn3c(C)c(C)nc3c2NC(c2ccccc2)C1OC(=O)CCCCO[N+](=O)[O-] (stereo not given)
2,247 to 248,Cc1cccc(-c2nc3ccc(Cl)nn3c2-c2ccnc(N)c2)c1
3,80 to 84,CN1C(=O)CC[C@]2(C)c3ccc(Sc4ncccc4[N+](=O)[O-])cc3CC[C@@H]12
4,171 to 172,CCCn1c(=O)c2[nH]c(C3CCOCC3)nc2n(CCC)c1=O
5,158 to 161,CS(=O)(=O)CC1COCc2nc3c(N)nc4ccccc4c3n21 (stereo not given)
6,151 to 154,Cc1ccc(-c2ncc3c(n2)CCCC3)nc1-c1ccc(C=O)cc1
7,163 to 165,CCOC(=O)c1c(N2CCN(C)CC2)c2cc(Cl)ccc2n(C)c1=O
8,117 to 118,C=C(c1ccc(C(=O)OC)cc1)c1ccc2c(c1)C(C)(C)CCC2(C)C
9,64 to 65,C/C(=C\C(C)O)c1ccc(C2CCCCCC2)cc1 (stereo not given)
10,248 to 250,CNS(=O)(=O)c1cn(C)c2ccccc2c1=O
11,85 to 86,CS(=O)(=O)N(CCCl)N(C(=O)NCCCCl)S(C)(=O)=O
12,210 to 213,COc1cc(-c2ccc(O)c(C3(C)CCCCC3)c2)cc(CC2SC(N3CCOCC3)=NC2=O)c1OC (stereo not given)
13,251 to 253,O=C1c2ccc(F)cc2C(=O)c2cc3cc(F)ccc3cc21
14,179 to 182,O=C(O)C1c2cc(Br)ccc2COc2ccc(Br)cc21 (stereo not given)
15,203 to 205,Cc1cnc2c(c1-c1ccccc1)C(=O)N(Cc1cc(C(F)(F)F)cc(C(F)(F)F)c1)CCN(C)C2=O
16,136 to 139,O=[N+]([O-])c1ccc(/C=C/c2ccccn2)cc1
17,109 to 110,Cn1nc(-c2ccccc2)c(Sc2ccccc2)c1-c1ccccc1
18,124 to 127,CNC(=O)OC(C(Oc1ccc(Cl)cc1Cl)n1cncn1)C(C)(C)CF (stereo not given)
19,120,CN(C)c1c(Cl)cc(C(O)C#Cc2ccc(C(=O)O)cc2)cc1C(C)(C)C (stereo not given)
20,235 to 237,COc1cc2c(Nc3ccc(Sc4nccn4C)c(Cl)c3)c(C#N)cnc2cc1N1CCC(N2CCN(C)CC2)CC1

row,melting point [°C],Structure (SMILES)
1,175 to 178,CN(C)C=C1C[N+]([O-])=C(c2ccccc2F)c2cc(Cl)ccc2C1=O
2,119 to 121,CCCCCc1cccc2c1NC(=O)C2=O
3,183 to 185,NS(=O)(=O)c1cc(C(=O)c2ccccc2)ccc1Cl
4,56 to 64,CCCN(CCC)C1CCc2ccc3c(c2C1)OCC3=O (stereo not given)
5,185,COc1cc(NC(C)=O)c(Cl)cc1C(=O)NN1CCN(Cc2ccccc2)CC1
6,209 to 211,CN(Cc1ccc(NC(=O)C2=Cc3cc(-c4ccc(OCC(=O)OC(C)(C)C)cc4)ccc3S(=O)(=O)CC2)cc1)C1CCOCC1
7,135 to 137,Cn1c(C(F)(F)F)cc(=O)n(-c2cc(OCc3cccc(F)c3)c(Cl)cc2F)c1=O
8,95.5 to 96,O=C(CCCCOc1ccc(OCc2ccccc2)cc1)C(F)(F)F
9,192 to 193,CCCOc1ccc(C)c2c(=O)c(-c3ccc(OC)cc3)c[nH]c12
10,240 to 242,O=C(Cn1c(-c2ccc(Cl)cc2)nc2cccnc21)Nc1ccccc1
11,202 to 204,N=c1nc(N)c2ncn(Cc3ccccc3)c2c(N)n1
12,180 to 182,O=C(O)Cc1cc([N+](=O)[O-])ccc1C(=O)O
13,124,CCOC(=O)c1cnc2c(c1)C(=O)C=CC2=O
14,164 to 166,OCC1Cc2c(c(Br)cc3c(-c4ccccc4)noc23)O1 (stereo not given)
15,58 to 60,Cc1cccc(NC(=O)CS)c1
16,50,CCOC(=O)c1noc(-c2ccc(SC)cc2Cl)c1C(=O)C1CC1
17,210 to 211,CN(C)CCc1ccc(NC=O)c2[nH]ncc12
18,210 to 214,CN(C)C(=O)C(O)C1c2ccccc2CCc2ccccc21 (stereo not given)
19,247,O=C1CC(c2cccc(-n3ccnc3)c2)=Nc2cc(O)c(C#Cc3ccc(F)cc3)cc2N1

row,Structure (SMILES),melting point [°C]
1,CN(CCCc1cccc(Oc2ccc(C(F)(F)F)cc2)c1)N=O,75 to 76
